What was measured:
PIK3C2B = target: T1, PIK3C2B (Homo sapiens, UniProt O00750); assay: KinomeScan; type: binding; conditions: read-out: % Control
T1 construct: purchased DiscoveRx (Fremont, CA)

MET(Y1235D) = target: T2, MET(Y1235D) (Homo sapiens, UniProt P08581, Y1235D); assay: KinomeScan; type: binding; conditions: read-out: % Control
T2 construct: purchased DiscoveRx

NDR2 = target: T3, NDR2 (Homo sapiens, UniProt Q9Y2H1); assay: KinomeScan; type: binding; conditions: read-out: % Control
T3 construct: purchased DiscoveRx

TESK1 = target: T4, TESK1 (Homo sapiens, UniProt Q15569); assay: KinomeScan; type: binding; conditions: read-out: % Control
T4 construct: purchased DiscoveRx (Fremont, CA)
T4 sequence (Q15569 whole entry): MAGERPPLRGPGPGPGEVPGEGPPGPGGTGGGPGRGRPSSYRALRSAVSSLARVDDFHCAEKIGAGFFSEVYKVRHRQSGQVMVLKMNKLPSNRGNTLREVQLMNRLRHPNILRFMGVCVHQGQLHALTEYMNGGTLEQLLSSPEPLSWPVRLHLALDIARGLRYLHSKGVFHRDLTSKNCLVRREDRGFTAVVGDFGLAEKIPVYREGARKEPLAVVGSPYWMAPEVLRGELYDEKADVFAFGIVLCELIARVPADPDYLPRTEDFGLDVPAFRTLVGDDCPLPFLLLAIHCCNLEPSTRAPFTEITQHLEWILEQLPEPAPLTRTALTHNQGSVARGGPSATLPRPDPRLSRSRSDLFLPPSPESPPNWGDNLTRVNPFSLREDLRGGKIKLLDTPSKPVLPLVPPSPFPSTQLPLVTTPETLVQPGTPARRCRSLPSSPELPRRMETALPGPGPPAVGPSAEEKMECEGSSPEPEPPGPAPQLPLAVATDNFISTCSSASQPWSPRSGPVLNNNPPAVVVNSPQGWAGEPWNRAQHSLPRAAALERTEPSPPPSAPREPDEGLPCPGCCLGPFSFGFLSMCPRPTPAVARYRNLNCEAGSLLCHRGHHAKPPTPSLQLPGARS

CHEK1 = CHEK1 (Homo sapiens, UniProt O14757); assay: KinomeScan; type: binding; conditions: read-out: % Control
Sequence of CHEK1 (O14757 whole entry): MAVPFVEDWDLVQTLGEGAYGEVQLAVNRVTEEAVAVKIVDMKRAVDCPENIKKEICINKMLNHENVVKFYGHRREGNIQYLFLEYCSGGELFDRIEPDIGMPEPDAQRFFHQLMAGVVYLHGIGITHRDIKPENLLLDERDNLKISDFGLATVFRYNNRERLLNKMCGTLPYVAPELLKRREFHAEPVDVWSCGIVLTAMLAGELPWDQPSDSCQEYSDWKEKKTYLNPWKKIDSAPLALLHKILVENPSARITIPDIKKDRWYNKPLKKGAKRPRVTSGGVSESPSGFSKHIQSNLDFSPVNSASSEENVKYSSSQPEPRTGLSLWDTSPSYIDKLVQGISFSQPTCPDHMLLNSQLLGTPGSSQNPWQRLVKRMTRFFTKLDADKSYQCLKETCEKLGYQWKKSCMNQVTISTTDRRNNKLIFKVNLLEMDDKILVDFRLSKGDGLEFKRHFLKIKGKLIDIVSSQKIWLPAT

KIT(L576P) = target: T5, KIT(L576P) (Homo sapiens, UniProt P10721, L576P); assay: KinomeScan; type: binding; conditions: read-out: % Control
T5 construct: purchased DiscoveRx

IRAK1 = target: T6, IRAK1 (Homo sapiens, UniProt P51617); assay: KinomeScan; type: binding; conditions: read-out: % Control
T6 construct: purchased DiscoveRx (Fremont, CA)
T6 sequence (P51617 whole entry): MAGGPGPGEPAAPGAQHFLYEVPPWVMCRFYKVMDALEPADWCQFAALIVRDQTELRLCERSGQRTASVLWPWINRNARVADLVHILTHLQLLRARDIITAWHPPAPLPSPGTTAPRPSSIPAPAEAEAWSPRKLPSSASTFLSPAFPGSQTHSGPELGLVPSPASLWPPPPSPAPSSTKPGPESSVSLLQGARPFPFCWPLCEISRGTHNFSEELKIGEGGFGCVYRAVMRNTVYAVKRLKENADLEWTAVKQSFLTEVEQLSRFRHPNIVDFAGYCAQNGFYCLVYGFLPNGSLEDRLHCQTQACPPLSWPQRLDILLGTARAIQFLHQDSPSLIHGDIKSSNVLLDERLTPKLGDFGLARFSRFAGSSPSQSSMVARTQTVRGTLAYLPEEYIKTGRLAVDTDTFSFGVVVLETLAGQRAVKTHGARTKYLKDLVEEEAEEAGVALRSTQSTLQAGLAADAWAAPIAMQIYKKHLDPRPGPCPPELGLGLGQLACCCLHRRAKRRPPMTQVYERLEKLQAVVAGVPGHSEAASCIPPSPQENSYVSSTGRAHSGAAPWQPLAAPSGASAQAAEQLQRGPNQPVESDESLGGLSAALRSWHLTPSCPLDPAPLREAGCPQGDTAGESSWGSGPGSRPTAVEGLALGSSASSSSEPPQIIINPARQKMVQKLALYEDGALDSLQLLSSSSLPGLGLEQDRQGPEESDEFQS

STK16 = target: T7, STK16 (Homo sapiens, UniProt O75716); assay: KinomeScan; type: binding; conditions: read-out: % Control
T7 construct: purchased DiscoveRx (Fremont, CA)

TLK1 = target: T8, TLK1 (Homo sapiens, UniProt Q9UKI8); assay: KinomeScan; type: binding; conditions: read-out: % Control
T8 construct: purchased DiscoveRx (Fremont, CA)
T8 sequence (Q9UKI8 whole entry): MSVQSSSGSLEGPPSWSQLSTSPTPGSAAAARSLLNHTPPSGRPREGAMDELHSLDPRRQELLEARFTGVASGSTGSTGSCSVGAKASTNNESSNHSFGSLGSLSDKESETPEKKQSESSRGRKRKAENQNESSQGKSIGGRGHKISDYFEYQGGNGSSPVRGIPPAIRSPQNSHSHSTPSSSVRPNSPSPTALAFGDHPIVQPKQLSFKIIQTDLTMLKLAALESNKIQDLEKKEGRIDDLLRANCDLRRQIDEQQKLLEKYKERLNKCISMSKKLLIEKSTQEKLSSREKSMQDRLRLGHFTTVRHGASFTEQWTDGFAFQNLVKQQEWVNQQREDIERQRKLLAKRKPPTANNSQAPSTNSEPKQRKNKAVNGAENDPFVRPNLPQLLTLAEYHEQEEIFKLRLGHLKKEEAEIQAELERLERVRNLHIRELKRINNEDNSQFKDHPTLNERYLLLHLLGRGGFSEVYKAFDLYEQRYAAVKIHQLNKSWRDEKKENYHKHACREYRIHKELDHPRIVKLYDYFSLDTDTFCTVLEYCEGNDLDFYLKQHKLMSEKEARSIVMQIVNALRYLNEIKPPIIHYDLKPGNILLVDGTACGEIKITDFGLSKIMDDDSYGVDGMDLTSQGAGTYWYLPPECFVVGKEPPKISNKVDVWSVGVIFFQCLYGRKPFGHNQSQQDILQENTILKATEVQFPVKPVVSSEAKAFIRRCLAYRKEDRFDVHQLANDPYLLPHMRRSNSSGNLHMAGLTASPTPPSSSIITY

ULK2 = target: T9, ULK2 (Homo sapiens, UniProt Q8IYT8); assay: KinomeScan; type: binding; conditions: read-out: % Control
T9 construct: purchased DiscoveRx

p38-alpha = target: T10, p38-alpha (Homo sapiens, UniProt Q16539); assay: KinomeScan; type: binding; conditions: read-out: % Control
T10 construct: purchased DiscoveRx

GSK3A = target: T11, GSK3A (Homo sapiens, UniProt P49840); assay: KinomeScan; type: binding; conditions: read-out: % Control
T11 construct: purchased DiscoveRx (Fremont, CA)

ADRA1D = target: T12, ADRA1D (Homo sapiens, UniProt P25100); assay: GPCR Profiler; type: cell-based
T12 construct: host or cells: Chem-1 cells with promiscuous Gα15
T12 sequence (P25100 whole entry, species assumed): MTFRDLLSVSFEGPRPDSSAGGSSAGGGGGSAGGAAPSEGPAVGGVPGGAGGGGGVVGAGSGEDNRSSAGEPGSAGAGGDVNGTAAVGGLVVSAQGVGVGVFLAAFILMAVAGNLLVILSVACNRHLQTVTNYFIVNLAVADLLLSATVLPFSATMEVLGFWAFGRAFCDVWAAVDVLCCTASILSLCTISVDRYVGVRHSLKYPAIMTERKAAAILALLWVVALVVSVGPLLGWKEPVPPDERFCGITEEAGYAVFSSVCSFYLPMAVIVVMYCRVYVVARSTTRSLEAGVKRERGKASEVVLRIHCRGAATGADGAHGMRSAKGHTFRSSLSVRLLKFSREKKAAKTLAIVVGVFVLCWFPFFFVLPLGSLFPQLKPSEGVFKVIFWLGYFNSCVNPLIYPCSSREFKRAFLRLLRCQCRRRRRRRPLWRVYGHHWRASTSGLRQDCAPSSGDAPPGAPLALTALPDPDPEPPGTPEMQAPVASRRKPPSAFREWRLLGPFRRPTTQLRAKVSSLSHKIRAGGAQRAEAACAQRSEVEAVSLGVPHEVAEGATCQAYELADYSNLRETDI

[1] = target: T13, RSK4(Kin Dom.1-N-terminal) (Homo sapiens, UniProt Q9UK32); assay: KinomeScan; type: binding; conditions: read-out: % Control
T13 construct: RSK4(Kin Dom.1-N-terminal); purchased DiscoveRx (Fremont, CA)

CCR7 = target: T14, CCR7 (Homo sapiens, UniProt P32248); assay: GPCR Profiler; type: cell-based
T14 construct: host or cells: Chem-1 cells with Gα15
T14 sequence (P32248 25-378, species assumed): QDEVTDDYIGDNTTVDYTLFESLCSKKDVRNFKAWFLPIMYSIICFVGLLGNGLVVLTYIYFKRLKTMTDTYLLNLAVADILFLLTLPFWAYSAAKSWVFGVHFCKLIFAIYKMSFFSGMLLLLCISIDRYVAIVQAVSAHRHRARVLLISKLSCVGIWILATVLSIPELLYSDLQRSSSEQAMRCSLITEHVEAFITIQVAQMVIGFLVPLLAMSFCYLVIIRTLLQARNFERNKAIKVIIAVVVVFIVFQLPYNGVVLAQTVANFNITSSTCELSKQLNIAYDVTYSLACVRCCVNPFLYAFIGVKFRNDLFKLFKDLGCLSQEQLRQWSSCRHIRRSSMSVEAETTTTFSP

ADRB2 = target: T15, ADRB2 (Homo sapiens, UniProt P07550); assay: GPCR Profiler; type: cell-based
T15 construct: host or cells: Chem-1 cells with promiscuous Gα15
T15 sequence (P07550 whole entry, species assumed): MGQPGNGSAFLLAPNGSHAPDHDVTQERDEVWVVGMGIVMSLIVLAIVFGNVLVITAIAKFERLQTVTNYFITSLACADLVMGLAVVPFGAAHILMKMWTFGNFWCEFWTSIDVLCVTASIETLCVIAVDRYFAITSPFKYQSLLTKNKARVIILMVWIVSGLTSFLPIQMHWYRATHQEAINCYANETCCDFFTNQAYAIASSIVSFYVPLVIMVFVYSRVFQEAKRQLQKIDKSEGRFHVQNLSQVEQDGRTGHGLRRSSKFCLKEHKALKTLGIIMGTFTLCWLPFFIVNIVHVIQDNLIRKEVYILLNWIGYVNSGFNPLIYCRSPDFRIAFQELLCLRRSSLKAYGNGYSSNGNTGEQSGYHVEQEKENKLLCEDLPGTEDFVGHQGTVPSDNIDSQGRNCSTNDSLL

H3 = target: T16, H3 (Homo sapiens, UniProt Q9Y5N1); assay: GPCR Profiler; type: cell-based
T16 construct: host or cells: Chem-1 cells with promiscuous Gα15
T16 sequence (Q9Y5N1 whole entry): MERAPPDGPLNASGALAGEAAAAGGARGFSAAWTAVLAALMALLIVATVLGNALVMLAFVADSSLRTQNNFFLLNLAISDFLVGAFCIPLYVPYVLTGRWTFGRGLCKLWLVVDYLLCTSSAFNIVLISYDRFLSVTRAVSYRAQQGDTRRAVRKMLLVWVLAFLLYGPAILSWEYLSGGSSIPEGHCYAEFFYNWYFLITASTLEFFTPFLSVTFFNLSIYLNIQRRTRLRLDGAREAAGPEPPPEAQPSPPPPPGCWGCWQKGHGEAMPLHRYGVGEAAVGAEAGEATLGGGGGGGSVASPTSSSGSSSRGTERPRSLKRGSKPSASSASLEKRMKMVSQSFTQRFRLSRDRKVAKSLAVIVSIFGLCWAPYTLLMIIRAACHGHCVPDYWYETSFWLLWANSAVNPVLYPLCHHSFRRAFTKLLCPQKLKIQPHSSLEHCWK

VPAC2 = target: T17, VPAC2 (Homo sapiens, UniProt P41587); assay: GPCR Profiler; type: cell-based
T17 construct: host or cells: Chem-1 cells expressing Galpha15
T17 sequence (P41587 24-438): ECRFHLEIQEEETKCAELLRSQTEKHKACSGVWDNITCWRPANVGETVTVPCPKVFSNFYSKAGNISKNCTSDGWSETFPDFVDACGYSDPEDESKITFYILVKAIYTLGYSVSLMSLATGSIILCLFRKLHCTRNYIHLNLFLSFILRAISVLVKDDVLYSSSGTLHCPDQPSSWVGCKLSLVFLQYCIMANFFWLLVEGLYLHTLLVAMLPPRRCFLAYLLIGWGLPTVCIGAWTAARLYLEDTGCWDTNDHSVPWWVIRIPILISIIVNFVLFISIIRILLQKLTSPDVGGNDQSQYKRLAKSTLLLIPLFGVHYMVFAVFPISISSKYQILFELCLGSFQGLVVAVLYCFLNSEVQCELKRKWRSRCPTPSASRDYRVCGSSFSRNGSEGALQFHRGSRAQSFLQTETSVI

[2] = system: U87 glioblastoma spheroids; assay: Matrigel matrix invasion of spheroids; type: cell-based
Text: U87 glioblastoma spheroids were formed in low attachment round bottom plates for 3 days. Spheroids were then covered in Matrigel™, which was allowed to polymerize before treatment with acidified media with or without OGM2. Acidification increased the degree of matrix invasion which is attenuated by OGM2.

RWGT2 = assay: Cell Titer-Glo viability, Lung cancer, squamous cell; type: cell-based
Description: (§1) OGM2 kills wide variety of cancer cell types. Cell sensitivity can be classified in to Very Sensitive (LC50<2 μM), Sensitive (LC50=2 to 10 μM), Mildly Sensitive (LC50>10 μM), and Refractory (no killing at 10 μM). The listed established cell were incubated with OGM2 at 2 μM or 10 μM for 72 hours under standard cell culture conditions, and relative cell number was assessed using Cell Titer-Glo Luminescent Cell Viability Assay (Promega™) following the manufacturer's instructions. Luminescence was determined using a Cytation 5 reader and Gen5 software package (BioTek™).
(§2) Cancer cells, which are very sensitive to killing by OGM2 (LCs <2 μM), with reported mRNA expression of GPR68 and the related proton sensing receptor GPR4. LC50's (concentrations causing 50% lethality) were determined using CellTiter-Glo (Promega™, G7570). Cells were plated in 12-well plates (CELLTREAT Scientific Products, 229112) in 1 ml of DMEM with high glucose, GlutaMAX, HEPES, or RPMI 1640 with Penicillin-Streptomycin (ThermoFisher™, 10564029, 11875119 and 15140122) and 10% FBS. Cells were incubated overnight at 37° C. in 5% CO2. Then 1 mL of fresh media was added with DMSO, OGM, or positive control (Erastin; APExBIO Technology, LLC, B1524) and cells incubated for 3 days. On the third day, all media was removed, cells were rinsed with 1×PBS, PBS was removed, and 200 μL of 1× Passive Lysis Buffer (Promega™, E1941) was added to each well. […]. Subsequently, 20 μL of lysate was added to 100 μL CellTiter-Glo™ reagent on a LUMITRAC 200 plate (Greiner™ bio-one, 82050-726). Plates were briefly spun down and read on a GloMax-Multi Detection System (Promega™).
(§3) The cells listed in the tables above were incubated with OGM2 at 2 μM or 10 μM for 72 hours under standard cell culture conditions, and relative cell number was assessed using Cell Titer-Glo Luminescent Cell Viability Assay (Promega™) following the manufacturer's instructions. Luminescence was determined using a Cytation 5 reader and Gen5 software package (BioTek™). RNA expression of GPR68 and GPR4 in the corresponding cancer cell lines are listed, according to the publicly available The Human Protein Atlas version 22.0 and Ensembl version 103.38 (see proteinatlas.org). The consensus normalized expression value (“nTPM”=normalize transcript per million) was calculated as the maximum nTPM value for each gene in the two data sources.

MOLM-14 = assay: Cell Titer-Glo viability, Acute monocytic leukemia; type: cell-based
Description: as §1, §2, §3

THP-1 = assay: Cell Titer-Glo viability, Acute monocytic leukemia; type: cell-based; conditions: 72 hours
Description: as §1, §2, §3

`CCc1ccc2c(c1)C1(NN=C(c3cccc4ccccc34)S1)C(=O)N2` (centres unmarked) [OGM1, 5-ethyl-5′-naphthalen-1-ylspiro[1H-indole-3,2′-3H-1,3,4-thiadiazole]-2-one] gave a remaining binding at 10 µM (PIK3C2B) of 95%, a remaining binding at 10 µM (MET(Y1235D)) of 100% and a remaining binding at 10 µM (NDR2) of 82%. For the same compound, the remaining binding at 10 µM (TESK1) was 100%, the remaining binding at 10 µM (CHEK1) was 100% and the remaining binding at 10 µM (KIT(L576P)) was 82%. The remaining binding at 10 µM (IRAK1) was 100%, the remaining binding at 10 µM (STK16) was 88% and the remaining binding at 10 µM (TLK1) was 53%. It also gave a remaining binding at 10 µM (ULK2) of 100%, a remaining binding at 10 µM (p38-alpha) of 54% and a remaining binding at 10 µM (GSK3A) of 78%. The Antagonism (ADRA1D; 10 uM) was −5.7, the Agonism (ADRA1D; 12.5 uM) was 0.8 and the remaining binding at 10 µM [1] was 100%. It also gave an Antagonism (CCR7; 10 uM) of 4, an Agonism (CCR7; 12.5 uM) of 0 and an Antagonism (ADRB2; 10 uM) of −9.5. It also gave an Agonism (ADRB2; 12.5 uM) of −0.1, an Antagonism (H3; 10 uM) of −3.3 and an Agonism (H3; 12.5 uM) of 0.5. The Antagonism (VPAC2; 10 uM) was 6.9 and the Agonism (VPAC2; 12.5 uM) was 10.7.

For `CCc1ccc2c(c1)C1(NN=C(c3ccccc3)S1)C(=O)N2` (centres unmarked) [OGM2], the acidification-increased matrix invasion [2] was “attenuated”, the Class (RWGT2) was “Very Sensitive (Very Sensitive (LC50<2 μM))” and the “% Survival 2 μM OGM” value (RWGT2; 72 hours) was 39.9%. For the same compound, the “% Survival 10 μM OGM” value (RWGT2; 72 hours) was 37.1%, the CC50 (RWGT2; Homo sapiens, 72 hours, read-out: LC50 (the source's name)) was < 2000 nM and the Class (MOLM-14) was “Sensitive (Sensitive (LC50=2 to 10 μM))”. For the same compound, the “% Survival 2 μM OGM” value (MOLM-14; 72 hours) was 65.3%, the “% Survival 10 μM OGM” value (MOLM-14; 72 hours) was 15.3% and the CC50 (MOLM-14; Homo sapiens, MOLM-14, 72 hours, read-out: LC50 (the source's name)) was 2000 to 10000 nM. For the same compound, the “% Survival 2 μM OGM” value (THP-1) was 33.0%, the “% Survival 10 μM OGM” value (THP-1) was 9.4% and the CC50 (THP-1; Homo sapiens, THP-1, read-out: LC50 (the source's name)) was < 2000 nM.

Reference: patent US20240327364A1, “THERAPEUTIC TARGETING OF GPR68 TO INDUCE FERROPTOSIS” (University Of Maryland, Baltimore, priority 2023, published 2024)
